Results as given in patent US11712443B2, “17α-monoesters and 17α,21-diesters of cortexolone for use in the treatment of tumors” (COSMO TECHNOLOGIES LTD., priority 2014, dated 2023).
Where two headings read alike, the source gives them in different places.

Key:
LNCaP = assay: ATP-dependent proliferation/viability assay (Cell Titer Glo), 3 days; conditions: LNCaP
Procedure: (§1) The experiment was performed to test and to define the antitumor activity in vitro of cortexolone 17α-benzoate on LNCaP (AR+) and PC3 (AR^−), representative of Prostatic cancer cell lines with Androgen Receptor (AR) positive or negative expression, respectively. The experimental method consisted of: • 1. […] After 24 hours, 10 nM DHT (dihydrotestosterone) with or without anti-androgen compounds, or DMSO vehicle (negative control) was added to the cultures. • 3.
(§2) The experiment was performed to test and to define antitumor activity in vitro of cortexolone 17α-valerate-21-propionate (CB-03-10) on LNCaP (AR+) and PC3 (AR^−), representative of Prostatic cancer cell lines with AR positive or negative expression, respectively. The experimental method consisted of: • 1. […] After 24 hours, 10 nM DHT (dihydrotestosterone) with or without anti-androgen compounds, or DMSO vehicle (negative control) was added to the cultures. • 3.

PC3 = assay: as above; conditions: PC3
Procedure: as §1, §2

resting PBMC = assay: IC50 on resting PBMC (quiescent, non-dividing cells); assay type: cell-based, human
Procedure: The ratio from IC50 of the compounds on peripheral blood mononuclear cells (PBMC) and the IC50 on cancer cell lines constitute the Therapeutic Index and show what is the safer compound to be tested.
(§3) The IC^50 in PBMC were tested in 2 different activation status:
resting—quiescent, non-dividing cells
(§4) IC50 of the compounds was determined on fresh cells isolated from human blood (PBMC). The compounds toxicity was determined as follow: Therapeutic Index=Safety/Potency=IC50 stimulated PBMC_/IC50 cancer cell

HT29 [1] = assay: MTT colorimetric assay, 72 h; assay type: cell-based; conditions: for Inhibition (%) on HT29: 72 h, MTT; for Therapeutic Index (TI), Resting PBMC: IC50 resting PBMC / IC50 HT29; for Therapeutic Index (TI), Stimulated PBMC: IC50 stimulated PBMC / IC50 HT29
Procedure: The experiment was performed to test and define anticancer activity in vitro of Cortexolone 17α-benzoate and cortexolone 17α-valerate-21-propionate on cell lines representatives of epithelial intestinal tumors, namely HT29. The experiment method consisted in: • 1. Monolayer HT-29 cells were plated in: 96-wells plates at the density of 2×10^4 cells/mL. The cells plated were kept at 37° C. in 5% CO2 and left to attach for 24 h. • 2. […] After 72 h of treatment, the MTT colorimetric assay was performed.

MCF7 = assay: In vitro proliferation / cytotoxic assay on breast cancer cells (cell titer glo); conditions: MCF7
Procedure: For the cytotoxic assay: cells seeded in 96 well flat bottom culture plates in media containing charcoal stripped serum. After 24 hours test compounds were added to the cells. DMSO was used as the vehicle negative control and RU486 as the positive control. After 72 hours incubation cell were harvested, lysed and viability determined using the cell titer glow assay for viability.

[2] = tested on: MiaPaca-2 pancreatic tumor xenograft; assay: Human pancreatic tumor xenograft in nude mice, subcutaneous treatment; assay type: in vivo
Procedure: The test was carried out comparing the anti-tumor activity of cortexolone 17α-benzoate at two different dosages (8.0 mg/kg, corresponding approximately at 230 μM, and 40 mg/kg, corresponding approximately at 1150 μM), versus the vehicle (i.e. 0.4% (v/v) tween 80 and 0.5% (w/v) carboxymethylcellulose in normal saline) and versus the comparator Cyproterone Acetate at two different dosages (7.4 mg/kg and 37 mg/kg).
1×10^6 MiaPaca-2 cells suspended in matrigel were subcutaneously injected into 6 week old athymic nude mice.
The treatment with the tested compounds, with the vehicle and with the comparative compound, was initiated after the tumor volume has reached 50 mm3 after transplantation. All compounds were injected 100 μL/mouse subcutaneously of low dose solution (approximately 230 μM) or 100 μL/mouse of high dose solution (approximately 1150 μM) of cortexolone 17α-benzoate, vehicle and cyproterone acetate, respectively. Compounds and controls were administered subcutaneously daily for 28 days.
Tumors were measured every 4 days with a digital caliper.
The results are plotted in FIG. 1 as average change in tumor volume relative to the start of treatment. Tumor volume was calculated according to the formula 0.5236(r1)^2(r2) where r1<r2.
The test was carried out comparing the anti-tumor activity of cortexolone 17α-valerate-21-propionate (CB-03-10) at two different dosages (approximately 8.6 mg/kg and 43 mg/kg) versus the vehicle (i.e. 0.4% (v/v) tween 80 and 0.5% (w/v) carboxymethylcellulose in normal saline) and versus the comparator Cyproterone Acetate at two different dosages (7.4 mg/kg and 37 mg/kg).
The treatment with the tested compound, with the vehicle and with the comparative compound was initiated after the tumor has reached a volume of 50 mm3 after implantation, injecting subcutaneously 100 μL/mouse of low dose solution (approximately 230 μM) or 100 μL/mouse of high dose solution (approximately 1150 μM) of cortexolone 17α-valerate-21-propionate (CB-03-10), vehicle and cyproterone acetate, respectively. Compounds and controls were administered subcutaneously daily for 28 days.
The results are plotted in FIG. 2 as average change in tumor volume relative to the start of treatment. Tumor volume was calculated according to the formula 0.5236(r1)^2(r2) where r1<r2.
CPA a well-known anti-androgen was used as control. Briefly 1×10^6 MiaPaca2 cells suspended in matrigel were subcutaneously (SC) injected into 6 week old male athymic nude mice. Tumors were measured every 4 days with a digital caliper. Tumor volume was calculated according to the formula: 0.5236(r1)2(r2) where r1<r2. Treatment with CB-03-10 and controls compounds was initiated after the tumor had reached 50 mm3. Compounds diluted in DMSO/2-hydroxypropyl b-cyclodextrin (vehicle) were injected subcutaneously (SC) daily (100 μL/mouse) at the concentration of 40 mg/Kg daily for 28 consecutive days.

stimulated PBMC = assay: IC50 on stimulated PBMC (actively dividing cells)
Procedure: as §3
stimulated—actively dividing cells
as §4

BxPC3 = assay: In vitro proliferation, larger cancer cell line panel
HT29 [3] = assay: as above; conditions: HT29
Panc1 = assay: ATP-dependent proliferation/viability assay (Cell Titer Glo), 3 days; conditions: for TI on Resting PBMC: IC50 resting PBMC / IC50 Panc1; for TI on Stimulated PBMC: IC50 stimulated PBMC / IC50 Panc1
MiaPaca2 = assay: as above; conditions: for TI on Resting PBMC: IC50 resting PBMC / IC50 MiaPaca2; for TI on Stimulated PBMC: IC50 stimulated PBMC / IC50 MiaPaca2
[4] = Experiment 1, 0 = higher toxicity in PBMC

SMILES: C[C@]12CCC(=O)C=C1CC[C@@H]1[C@@H]2CC[C@@]2(C)[C@H]1CC[C@]2(OC(=O)c1ccccc1)C(=O)CO [CB-03-06, cortexolone 17α-benzoate]
- Therapeutic Index = IC50 resting PBMC/IC50 cancer cell (LNCaP; Table IV): 8
- Therapeutic Index = IC50 stimulated PBMC/IC50 cancer cell (LNCaP; Table VII): 8
- Therapeutic Index = IC50 resting PBMC/IC50 cancer cell (PC3; Table IV): 3
- Therapeutic Index = IC50 stimulated PBMC/IC50 cancer cell (PC3; Table VII): 3
- IC50 (resting PBMC; Example 7 Experiment 1): 100 µM
- IC50 (resting PBMC; Example 7 Experiment 2): 85 µM
- Inhibition (%) on HT29 (HT29 [1]; 0.8 micromolar): −1.55%
- Inhibition (%) on HT29 (HT29 [1]; 4 micromolar): 20.40%
- Inhibition (%) on HT29 (HT29 [1]; 20 micromolar): 53.60%
- Inhibition (%) on HT29 (HT29 [1]; 100 micromolar): 92.24%
- Inhibition (%) on HT29 (HT29 [1]; 500 micromolar): 92.31%
- Therapeutic Index (TI), Resting PBMC (HT29 [1]; Example 9 Experiment 1): 6
- Therapeutic Index (TI), Resting PBMC (HT29 [1]; Example 9 Experiment 2): 5
- Therapeutic Index (TI), Stimulated PBMC (HT29 [1]; Example 9 Experiment 1): 7
- Therapeutic Index (TI), Stimulated PBMC (HT29 [1]; Example 9 Experiment 2): 6
- Therapeutic Index = IC50 resting PBMC/IC50 cancer cell (MCF7; Table IV): 4
- Therapeutic Index = IC50 stimulated PBMC/IC50 cancer cell (MCF7; Table VII): 4
- pancreatic tumor size increase relative to size when treatment was initiated ([2]; Example 5, high dose 40 mg/kg (approximately 1150 μM, 100 μL/mouse) SC daily 28 days): less than 5 fold
- in vivo antitumor activity compared with Cyproterone Acetate ([2]; Examples 5 and 6, FIG. 3, same animal model): antitumor activity higher than Cyproterone Acetate
- Therapeutic Index = IC50 resting PBMC/IC50 cancer cell (stimulated PBMC; PBMC Stim, healthy lymphocyte, Table IV): 1
- Therapeutic Index = IC50 stimulated PBMC/IC50 cancer cell, AVERAGE (stimulated PBMC; average across the 7 cancer cell lines, Table VII): 5
- IC50 (stimulated PBMC; read-out: IC50 on Stimulated PBMC, Example 7 Experiment 1): 113 µM
- IC50 (stimulated PBMC; read-out: IC50 on Stimulated PBMC, Example 7 Experiment 2): 97 µM
- IC50 (stimulated PBMC; read-out: In vitro proliferation IC50, PBMC STIMULATED, healthy lymphocyte, Table IV): 97 µM
- Therapeutic Index = IC50 resting PBMC/IC50 cancer cell (BxPC3; Table IV): 3
- Therapeutic Index = IC50 stimulated PBMC/IC50 cancer cell (BxPC3; Table VII): 3
- Therapeutic Index = IC50 resting PBMC/IC50 cancer cell (HT29 [3]; Table IV): 6
- Therapeutic Index = IC50 stimulated PBMC/IC50 cancer cell (HT29 [3]; Table VII): 6
- IC50 (HT29 [3]; read-out: In vitro proliferation IC50, Table IV): 10 µM
- TI on Resting PBMC (Panc1; [4]): 4
- TI on Resting PBMC (Panc1; Experiment 2): 3
- TI on Stimulated PBMC (Panc1; Experiment 1, 0 = higher toxicity in PBMC than in the cancer cell lines): 5
- TI on Stimulated PBMC (Panc1; Experiment 2): 3
- Therapeutic Index = IC50 resting PBMC/IC50 cancer cell (Panc1; Panc1, Table IV): 3
- Therapeutic Index = IC50 stimulated PBMC/IC50 cancer cell (Panc1; Panc1, Table VII): 3
- TI on Resting PBMC (MiaPaca2; [4]): 6
- TI on Resting PBMC (MiaPaca2; Experiment 2): 4
- TI on Stimulated PBMC (MiaPaca2; [4]): 7
- TI on Stimulated PBMC (MiaPaca2; Experiment 2): 5
- Therapeutic Index = IC50 resting PBMC/IC50 cancer cell (MiaPaca2; MiaPaca2, Table IV): 5
- Therapeutic Index = IC50 stimulated PBMC/IC50 cancer cell (MiaPaca2; MiaPaca2, Table VII): 5
